Results as given in patent US11641857B2, “Unusually potent ABA receptor pan-antagonists” (The Regents of the University of California, priority 2019, dated 2023).
“Also recorded” adds a separate entry of the source.

Legend:
[1] = test system: ABA receptors (PYR1, PYL4, PYL8); test: ABA receptor antagonism in vitro, statements not resolved by receptor (PYR1, PYL4, PYL8 panel); assay type: biochemical, Arabidopsis
Method: (§1) Prior to synthesizing a library of OP-4-triazoles we conducted model click reactions to establish the feasibility and efficiency of using unpurified reaction mixtures directly in ABA receptor activation assays. These reactions were performed using OPZ and 4-ethynyltoluene as follows: we mixed OPZ (4 uL, 25 mM), alkyne (10 uL, 10 mM), sodium ascorbate (2 uL, 20 mM), BTTA (2 uL, 20 mM) and copper(II) sulphate (2 uL, 10 mM) in a 200 μL PCR tube and incubated the reaction at 37° C. for 48 hr. The reaction was monitored using TLC. In parallel, we ran a scaled-up synthesis of the triazole using similar ratios of the reagents and conditions, followed by precipitation of the product by the addition of 2N HCl and subsequent filtration to yield triazole T1 from 4-ethynyltoluene as white powder in quantitative yields. The purified triazole and unpurified click reaction were both tested in receptor-mediated phosphatase inhibition assays. […] Reactions were mixed and equilibrated for 20 minutes, substrate (4-methylumbelliferyl phosphate, 1 mM final) was added, and fluorescence data were collected (λ, exc=360 nm, λ emm=460 nm) using a Tecan Infinite F200 Pro fluorimeter. PP2C activity was calculated relative to solvent-only control wells (i.e. receptors and PP2C in assay buffer, but no test compound); compounds were tested in duplicate. […]

Arabidopsis (Col) seeds = test: Arabidopsis seed germination/greening assay in presence of ABA; assay type: in vivo; settings: for blocking of ABA inhibition of cotyledon greening: 30 μM pure compound
Method: To evaluate and prioritize the 204 hits obtained, we examined their effects on ABA-mediated inhibition of Arabidopsis seed germination and seedling growth. Arabidopsis seeds germinate and produce photosynthetically active cotyledons within 4-days post imbibition under illumination. Low concentrations of ABA (i.e. 1 μM) inhibit both germination and seedling growth, which is easily quantified by image analysis of green pixel counts. This provides a simple test for ABA antagonists, as they will block the inhibitory effects of ABA on greening. We used this assay to characterize the 204 hit molecules. Greening experiments were performed in 96-well polystyrene petri plates using surface sterilized Arabidopsis (Col) seeds plated on to 0.7% agar medium containing ½-X MS salts, 0.5% sucrose, 1 μM ABA, and one of the 204 click reactions products (˜10 μM). After 4 days of stratification (4° C.), the plates were transferred to a growth chamber under continuous illumination and photographed 4 days later. Each experiment included ABA (1 μM ABA, no antagonist) and mock (no ABA) controls.
The OP-4-triazoles 48E9T, 49C10T, 49 Å2T, 1H6T and 6E4T were tested in Arabidopsis greening assays at 30 μM in presence or absence of 1 μM ABA using conditions described in Example 7. […] (FIG. 7).
Purified triazoles were evaluated for their ability to block the effects of exogenous ABA in inhibiting seed germination/greening, performed as described in Example 7 using the purified OP-4-peptidotriazole hits, PanMe, AA1, and OPZ at concentrations ranging from 200 nM to 50000 nM in triplicate in presence of 1 μM ABA. Seed germination was scored at the lowest concentration tested, while greening data (normalized to mock control) was fitted to log(inhibitor) vs. response-(variable slope) model using non-linear regression to infer the EC50S, using GraphPad Prism 6.0.

Arabidopsis seeds = test: Thermoinhibition of seed germination assay; assay type: in vivo; settings: 0.2 μM to 50 μM, 37° C. in dark for 72 hrs
From the text: Adverse environmental conditions during germination can affect dormancy in several species. For example, high temperatures during seed imbibition can prevent seed germination and induce a form of secondary seed dormancy in a process called thermoinhibition. Although thermoinhibtion is complex, elevated ABA levels induced by heat play a critical role, as evidenced by both the identification of ABA-deficient varieties of lettuce with reduced sensitivity to thermoinhibition and pharmacological experiments using fluridone, which disrupts ABA biosynthesis and thermoinhibition in many species. Chemicals that can counter this effect of heat stress could find use as seed treatments to ensure consistent germination under adverse conditions. […] 96 well polystyrene petri plates with surface sterilized Arabidopsis seeds plated on 0.7% agar medium containing ½-x MS salts, 0.5% sucrose, and doses spanning from 0.2 μM to 50 μM of different OP-4-peptidotriazoles, PanMe, AA1, OPZ and fluridone as a positive control. After 4 d of stratification at 4° C., the plates were transferred to an incubation chamber at 37° C. in dark for 72 hrs. After heat treatment, the plates were placed in dark in an incubation chamber at RT for 48 hrs and photographed.

ABA receptors = settings: cited from earlier work
[2] = Light sensitivity of the isolated product; assay type: physicochemical; settings: isolated solid, stored at −20° C.
Method: 142-(4-Azido-3,5-dicyclopropylphenyl)acetylaminolcyclohexanecarboxylic acid (2b; OPZ) To a solution of 2a (0.4 g, 1.01 mmoles, 1 equiv) in methanol/water 20 mL (1:1 v/v) was added lithium hydroxide (0.48 g, 20.2 mmoles, 20 equiv) and stirred at RT for 24 hr. After completion of the reaction (TLC), 2N HCl was added to the reaction mixture to precipitate the product as a white solid in near quantitative yields.

PYR1 = target: T1, PYR1 (Arabidopsis thaliana, UniProt O49686); test: ABA/receptor-mediated PP2C (ΔN-HAB1) phosphatase inhibition assay, PYR1; assay type: biochemical; settings: 100 nM PYR1, 25 nM ΔN-HAB1, 50 μM test compound, presence or absence of 5 μM ABA
T1 construct: made in house
T1 sequence (O49686 1-191): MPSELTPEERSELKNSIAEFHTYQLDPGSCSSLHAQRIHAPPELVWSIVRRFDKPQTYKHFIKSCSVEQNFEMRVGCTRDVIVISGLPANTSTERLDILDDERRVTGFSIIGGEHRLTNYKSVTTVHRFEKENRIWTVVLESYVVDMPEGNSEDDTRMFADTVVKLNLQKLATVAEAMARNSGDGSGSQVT
Method: as §1

MAPKKK18 gene expression = test: MAPKKK18::Luc luciferase reporter assay of ABA induced gene expression; assay type: in vivo, Arabidopsis thaliana; settings: 25 μM test chemical, 25 μM ABA, 6 hr
Method: ASV1E9T, PanMe, AA1 and OPZ were evaluated for their ability to block effects of exogenous ABA in inducing MAPKKK18 gene expression in Arabidopsis seedlings. Arabidopsis seeds (MAPKKKI8::Luc reporter line) were surface sterilized grown and plant growth liquid medium (½ Murashige and Skoog medium and 0.5% Sucrose) under 16 hour light and 8 hour dark conditions. 10 day old seedlings were transferred to new plant growth liquid medium with test chemical at 25 μM in presence of equimolar concentration of ABA and 100 μM luciferin. Luciferase assay image were taken by XYZ camera after 6 hr of treatments. The average luminescent intensity was quantified using ImageJ. Average intensity was calculated for quadruplicates and the error bars on graphs represent the standard error of mean. […] (FIG. 14)

Arabidopsis seedlings = test: Primary root growth assay in presence of ABA; assay type: in vivo; settings: 5 and 10 μM, 10 μM ABA, 72 hrs
Method: Purified triazoles were evaluated for their ability to block effects of exogenous ABA in inhibiting primary root growth in Arabidopsis seedlings. Arabidopsis seeds were surface sterilized and plated on 0.7% agar medium containing 1⁄2-x MS salts, 0.5% sucrose. After 4 d of stratification at 4° C., transferred to dark chamber for 48 hrs. 5-6 seedlings at this stage were transferred to chemical plates containing purified triazole hits, PanMe, AA1 and OPZ at 5 and 10 μM in triplicate in presence of 10 μM ABA. Additional ABA controls (10 μM ABA, no antagonist) were also performed to assess effects of ABA on growth in absence of antagonist and transferred to dark chamber at RT for 72 hrs. Root lengths were measured and normalized to mock controls (FIG. 13).

For `O=C(Cc1cc(C2CC2)c(-n2cc(Cn3c(=O)oc4cc(Cl)ccc43)nn2)c(C2CC2)c1)NC1(C(=O)O)CCCCC1` [1H6T], the “receptor selectivity (pan vs selective antagonist)” value [1] was “pan antagonist”, the phytotoxicity (Arabidopsis (Col) seeds; 30 μM) was “possible phytotoxicity” and the “blocking of ABA inhibition of cotyledon greening” value (Arabidopsis (Col) seeds; 1 μM ABA) was “weakly active”.
With `COc1ccc(-c2nc3ccccc3n2Cc2cn(-c3c(C4CC4)cc(CC(=O)NC4(C(=O)O)CCCCC4)cc3C3CC3)nn2)cc1` [6E4T] the “receptor selectivity (pan vs selective antagonist)” value [1] was “PYR1-selective antagonist” and the “blocking of ABA inhibition of cotyledon greening” value (Arabidopsis (Col) seeds; 1 μM ABA) was “only weakly effective”.
For `O=C(Cc1cc(C2CC2)c(-n2cc(CNC(=O)c3cnc4ccccc4n3)nn2)c(C2CC2)c1)NC1(C(=O)O)CCCCC1` [48E9T], the “blocking of ABA inhibition of cotyledon greening” value (Arabidopsis (Col) seeds; 1 μM ABA) was “highly effective in blocking the effects of ABA”.
For `O=C(Cc1cc(C2CC2)c(-n2cc(CNC(=O)c3coc(Br)c3)nn2)c(C2CC2)c1)NC1CCC(C(=O)O)CC1` (stereo not shown) [49 Å2T], the “block of thermoinhibition of germination” value (Arabidopsis seeds) was “block thermoinhibition” and the “blocking of ABA inhibition of cotyledon greening” value (Arabidopsis (Col) seeds; 1 μM ABA) was “highly effective in blocking the effects of ABA”.
In the case of `Cc1cccc(C(=O)NCc2cn(-c3c(C4CC4)cc(CC(=O)NC4(C(=O)O)CCCCC4)cc3C3CC3)nn2)n1` [49C10T], the “blocking of ABA inhibition of cotyledon greening” value (Arabidopsis (Col) seeds; 1 μM ABA) is reported as “highly effective in blocking the effects of ABA”.
In the case of `CCCCCCSC1=C(C)[C@](O)(/C=C/C(C)=C\C(=O)O)C(C)(C)CC1=O` [AS6], the “in vitro activity (literature antagonists)” value (ABA receptors) is given as “modest in vitro activity”.
In the case of `[N-]=[N+]=Nc1c(C2CC2)cc(CC(=O)NC2CCC(C(=O)O)CC2)cc1C1CC1` (stereo not shown) [OPZ, 142-(4-Azido-3,5-dicyclopropylphenyl)acetylaminolcyclohexanecarboxylic acid], the light sensitivity [2] is reported as “extremely light sensitive” and the “effect on PYR1 in PP2C activity assay” value (PYR1) is reported as “weak partial PYR1 agonist/antagonist”.
For `CC1=C[C@@H](OCC#Cc2ccc(C)cc2)CC(C)(C)[C@@]1(O)/C=C/C(C)=C\C(=O)O` [PanMe], the “block of thermoinhibition of germination” value (Arabidopsis seeds) is given as “blocks thermoinhibition but its effects decreased at higher concentrations”, the “in vitro activity (literature antagonists)” value (ABA receptors) is given as “modest in vitro activity” and the “block of ABA induced MAPKKK18::Luc gene expression” value (MAPKKK18 gene expression) is given as “less effective”. For the same molecule, the “block of ABA inhibition of primary root growth” value (Arabidopsis seedlings) was “weak effects”, the phytotoxicity (Arabidopsis (Col) seeds; 200 nM to 50000 nM dose range) was “phytotoxicity; also recorded: phytotoxic at higher concentrations” and the “blocking of ABA inhibition of seed germination/greening” value (Arabidopsis (Col) seeds; 200 nM to 50000 nM, 1 μM ABA, triplicate) was “blocks ABA's effects at lower concentrations”.
For fluridone, the “block of thermoinhibition of germination” value (Arabidopsis seeds) was “blocks thermoinhibition at all concentrations tested”.
